“And” between values parts separate entries of the source, which are not always exact repeats. Identical values can stand only once.
Assay: Accelerated and long term stability study of TTI-101 (Batch A, Batch B): HPLC assay, purity, impurities and water content after storage at 5° C., 25° C./60% RH, 30° C./65% RH or 40° C./75% RH
Format: physicochemical
Settings: for Impurities RRT 1.06: RRT of Compound 4; for Impurities RRT 0.99: RRT of compound of formula (IV)
Experimental: Exemplary HPLC conditions: diluent was 0.1% trifluoroacetic acid (TFA) in acetonitrile, Mobile Phase A was 0.05% TFA in water, and Mobile Phase B was 0.05% TFA in acetonitrile, column (Agilent, Eclipse XDB-C18, 3.0×100 mm, particle size 1.8 μm), flow (0.425 mL/min), and detector (280 nm diode array).
Batch A was prepared analogously using Method 3 as described in Example 1. Batch B was prepared according to Method 5 as described in Example 1.
Samples of TTI-101 were stored at 5° C., 25° C./60% RH, 30° C./65% RH, or 40° C./75% RH. TTI-101 was stored in an LDPE bag enclosed with a Nylon cable tie and then transferred to another LDPE bag and enclosed with a Nylon cable tie. The enclosure was put into an HDPE bottle and closed with a polyethylene-lined polypropylene cap. The samples were stored under the above-identified conditions.
The samples were analyzed using HPLC with the exemplary conditions identified above. Relative retention time (RRT) for Compound 5 was about 0.83, Compound 4 was about 1.05-1.06, Compound 6 was about 1.15-1.17, and compound of formula (IV) was about 0.99.
• NA not applicable • NQ ≥0.02% and <0.05% • Avg average • Cmpd compound • — no peak • M month • RRT relative retention time

[1] = 25° C./60% RH, 6 M, P1/P2, listed as Batch A
[2] = 25° C./60% RH, 9 M, P1/P2, listed as Batch A
[3] = 25° C./60% RH, 12 M, P1/P2, listed as Batch A
[4] = 40° C./75% RH, 0 M, P1/P2, listed as Batch A
[5] = 40° C./75% RH, 2 M, P1/P2, listed as Batch A
[6] = 40° C./75% RH, 6 M, P1/P2, listed as Batch A

Structure (SMILES): COc1ccc(S(=O)(=O)Nc2cc(-c3c(O)ccc4ccccc34)c(O)c3ccccc23)cc1 [TTI-101]
- Purity (%) (25° C./60% RH, 3 M, P1/P2): 99.7%
- Water Content (%) (25° C./60% RH, 3 M, P1/P2): <0.04%
- Assay (%) (25° C./60% RH, 3 M, P1/P2, listed as Batch A): 99.0% and 100.0%
- Assay (%) (25° C./60% RH, 6 M, Avg): 98.2%
- Impurities RRT 1.15 (Cmpd 6) (25° C./60% RH, 6 M, Avg): 0.11 area %
- Impurities Total (25° C./60% RH, 6 M, Avg): 0.1 area %
- Purity (%) (25° C./60% RH, 6 M, Avg): 99.9%
- Water Content (%) (25° C./60% RH, 6 M, Avg): <0.04%
- Impurities Total (25° C./60% RH, 6 M, P1/P2): 0.1 area %
- Purity (%) (25° C./60% RH, 6 M, P1/P2): 99.9%
- Water Content (%) (25° C./60% RH, 6 M, P1/P2): <0.04%
- Assay (%) [1]: 97.0% and 99.5%
- Impurities RRT 1.15 (Cmpd 6) [1]: 0.11 area % and 0.12 area %
- Assay (%) (25° C./60% RH, 9 M, Avg): 98.4%
- Impurities RRT 1.16 (Cmpd 6) (25° C./60% RH, 9 M, Avg): 0.10 area %
- Impurities Total (25° C./60% RH, 9 M, Avg): 0.1 area %
- Purity (%) (25° C./60% RH, 9 M, Avg): 99.9%
- Water Content (%) (25° C./60% RH, 9 M, Avg): <0.04%
- Impurities Total (25° C./60% RH, 9 M, P1/P2): 0.1 area %
- Purity (%) (25° C./60% RH, 9 M, P1/P2): 99.9%
- Water Content (%) (25° C./60% RH, 9 M, P1/P2): <0.04%
- Assay (%) [2]: 99.7% and 97.0%
- Impurities RRT 1.16 (Cmpd 6) [2]: 0.11 area % and 0.10 area %
- Assay (%) (25° C./60% RH, 12 M, Avg): 98.5%
- Impurities RRT 1.06 (Cmpd 4) (25° C./60% RH, 12 M, Avg): NQ (≥0.02% and <0.05%)
- Impurities RRT 1.16 (Cmpd 6) (25° C./60% RH, 12 M, Avg): 0.39 area %
- Impurities RRT 1.52 (25° C./60% RH, 12 M, Avg): NQ (≥0.02% and <0.05%)
- Impurities Total (25° C./60% RH, 12 M, Avg): 0.4 area %
- Purity (%) (25° C./60% RH, 12 M, Avg): 99.6%
- Water Content (%) (25° C./60% RH, 12 M, Avg): 0.04%
- Impurities RRT 1.06 (Cmpd 4) (25° C./60% RH, 12 M, P1/P2): NQ (≥0.02% and <0.05%)
- Impurities RRT 1.16 (Cmpd 6) (25° C./60% RH, 12 M, P1/P2): 0.39 area %
- Impurities Total (25° C./60% RH, 12 M, P1/P2): 0.4 area %
- Purity (%) (25° C./60% RH, 12 M, P1/P2): 99.6%
- Assay (%) [3]: 98.3% and 98.6%
- Water Content (%) [3]: <0.04% and 0.04%
- Assay (%) (25° C./60% RH, 18 M, Avg): 98.2%
- Impurities RRT 1.15 (Cmpd 6) (25° C./60% RH, 18 M, Avg): 0.10 area %
- Impurities Total (25° C./60% RH, 18 M, Avg): 0.1 area %
- Purity (%) (25° C./60% RH, 18 M, Avg): 99.9%
- Water Content (%) (25° C./60% RH, 18 M, Avg): <0.04%
- Impurities RRT 1.15 (Cmpd 6) (25° C./60% RH, 18 M, P1/P2): 0.10 area %
- Impurities Total (25° C./60% RH, 18 M, P1/P2): 0.1 area %
- Purity (%) (25° C./60% RH, 18 M, P1/P2): 99.9%
- Water Content (%) (25° C./60% RH, 18 M, P1/P2): <0.04%
- Impurities RRT 1.06 (25° C./60% RH, 18 M, P1/P2): NQ (≥0.02% and <0.05%)
- Assay (%) (25° C./60% RH, 18 M, P1/P2, listed as Batch A): 98.3% and 98.2%
- Assay (%) (25° C./60% RH, 24 M, Avg): 99.3%
- Impurities RRT 1.16 (Cmpd 6) (25° C./60% RH, 24 M, Avg): 0.12 area %
- Impurities Total (25° C./60% RH, 24 M, Avg): 0.1 area %
- Purity (%) (25° C./60% RH, 24 M, Avg): 99.9%
- Water Content (%) (25° C./60% RH, 24 M, Avg): <0.04%
- Impurities RRT 1.16 (Cmpd 6) (25° C./60% RH, 24 M, P1/P2): 0.12 area %
- Impurities Total (25° C./60% RH, 24 M, P1/P2): 0.1 area %
- Purity (%) (25° C./60% RH, 24 M, P1/P2): 99.9%
- Water Content (%) (25° C./60% RH, 24 M, P1/P2): <0.04%
- Impurities RRT 1.06 (25° C./60% RH, 24 M, P1/P2): NQ (≥0.02% and <0.05%)
- Assay (%) (25° C./60% RH, 24 M, P1/P2, listed as Batch A): 99.1% and 99.6%
- Assay (%) (40° C./75% RH, 0 M, Avg): 99.8%
- Impurities RRT 1.06 (Cmpd 4) (40° C./75% RH, 0 M, Avg): NQ (≥0.02% and <0.05%)
- Impurities RRT 1.17 (Cmpd 6) (40° C./75% RH, 0 M, Avg): 0.13 area %
- Impurities RRT 1.32 (40° C./75% RH, 0 M, Avg): NQ (≥0.02% and <0.05%)
- Impurities Total (40° C./75% RH, 0 M, Avg): 0.1 area %
- Purity (%) (40° C./75% RH, 0 M, Avg): 99.8%
- Water Content (%) (40° C./75% RH, 0 M, Avg): <0.04%
- Impurities RRT 0.99 (40° C./75% RH, 0 M, Avg): NQ (≥0.02% and <0.05%)
- Impurities RRT 1.32 (40° C./75% RH, 0 M, P1/P2): NQ (≥0.02% and <0.05%)
- Impurities Total (40° C./75% RH, 0 M, P1/P2): 0.1 area %
- Purity (%) (40° C./75% RH, 0 M, P1/P2): 99.8%
- Water Content (%) (40° C./75% RH, 0 M, P1/P2): <0.04%
- Assay (%) [4]: 99.9% and 99.7%
- Impurities RRT 1.17 (Cmpd 6) [4]: 0.13 area % and 0.12 area %
- Assay (%) (40° C./75% RH, 2 M, Avg): 99.9%
- Impurities RRT 1.16 (Cmpd 6) (40° C./75% RH, 2 M, Avg): 0.07 area %
- Impurities RRT 1.29 (40° C./75% RH, 2 M, Avg): NQ (≥0.02% and <0.05%)
- Impurities RRT 1.38 (40° C./75% RH, 2 M, Avg): NQ (≥0.02% and <0.05%)
- Impurities Total (40° C./75% RH, 2 M, Avg): 0.1 area %
- Purity (%) (40° C./75% RH, 2 M, Avg): 99.9%
- Water Content (%) (40° C./75% RH, 2 M, Avg): <0.04%
- Impurities RRT 0.99 (40° C./75% RH, 2 M, Avg): NQ (≥0.02% and <0.05%)
- Impurities RRT 1.38 (40° C./75% RH, 2 M, P1/P2): NQ (≥0.02% and <0.05%)
- Impurities Total (40° C./75% RH, 2 M, P1/P2): 0.1 area %
- Purity (%) (40° C./75% RH, 2 M, P1/P2): 99.9%
- Water Content (%) (40° C./75% RH, 2 M, P1/P2): <0.04%
- Impurities RRT 0.99 (40° C./75% RH, 2 M, P1/P2): NQ (≥0.02% and <0.05%)
- Assay (%) [5]: 100.0% and 99.8%
- Impurities RRT 1.16 (Cmpd 6) [5]: 0.08 area % and 0.06 area %
- Assay (%) (40° C./75% RH, 3 M, Avg): 99.0%
- Impurities RRT 0.36 (40° C./75% RH, 3 M, Avg): NQ (≥0.02% and <0.05%)
- Impurities RRT 1.06 (Cmpd 4) (40° C./75% RH, 3 M, Avg): 0.07 area %
- Impurities RRT 1.16 (Cmpd 6) (40° C./75% RH, 3 M, Avg): 0.21 area %
- Impurities Total (40° C./75% RH, 3 M, Avg): 0.3 area %
- Purity (%) (40° C./75% RH, 3 M, Avg): 99.7%
- Water Content (%) (40° C./75% RH, 3 M, Avg): <0.04%
- Impurities RRT 1.06 (Cmpd 4) (40° C./75% RH, 3 M, P1/P2): 0.07 area %
- Impurities RRT 1.16 (Cmpd 6) (40° C./75% RH, 3 M, P1/P2): 0.21 area %
- Impurities Total (40° C./75% RH, 3 M, P1/P2): 0.3 area %
- Purity (%) (40° C./75% RH, 3 M, P1/P2): 99.7%
- Water Content (%) (40° C./75% RH, 3 M, P1/P2): <0.04%
- Assay (%) (40° C./75% RH, 3 M, P1/P2, listed as Batch A): 100.8% and 97.2%
- Impurities RRT 1.15 (Cmpd 6) (40° C./75% RH, 6 M, Avg): 0.13 area %
- Impurities Total (40° C./75% RH, 6 M, Avg): 0.1 area %
- Purity (%) (40° C./75% RH, 6 M, Avg): 99.9%
- Water Content (%) (40° C./75% RH, 6 M, Avg): <0.04%
- Impurities Total (40° C./75% RH, 6 M, P1/P2): 0.1 area %
- Purity (%) (40° C./75% RH, 6 M, P1/P2): 99.9%
- Water Content (%) (40° C./75% RH, 6 M, P1/P2): <0.04%
- Assay (%) [6]: 98.5% and 95.9%
- Impurities RRT 1.15 (Cmpd 6) [6]: 0.13 area % and 0.12 area %
- Assay (%) (40° C./75% RH, 8 M, Avg): 100.3%
- Impurities RRT 1.16 (Cmpd 6) (40° C./75% RH, 8 M, Avg): 0.08 area %
- Impurities Total (40° C./75% RH, 8 M, Avg): 0.1 area %
- Purity (%) (40° C./75% RH, 8 M, Avg): 99.9%
- Water Content (%) (40° C./75% RH, 8 M, Avg): 0.04%
- Impurities Total (40° C./75% RH, 8 M, P1-P6): 0.1 area %
- Purity (%) (40° C./75% RH, 8 M, P1-P6): 99.9%
- Assay (%) (40° C./75% RH, 8 M, P1-P6, listed as Batch A): 100.0% and 99.8% and 100.3% and 100.6% and 99.9% and 100.8%
- Impurities Total (Storage 5° C., 0 M, Avg): 0.1 area %
- Impurity RRT 0.61 (Storage 5° C., 0 M, Avg): 0.05 area %
- Impurity RRT 0.86 (Storage 5° C., 0 M, Avg): NQ (≥0.02% and <0.05%)
- Impurity RRT 0.88 (Storage 5° C., 0 M, Avg): NQ (≥0.02% and <0.05%)
- Impurity RRT 0.99 (Storage 5° C., 0 M, Avg): NQ (≥0.02% and <0.05%)
- Impurity RRT 1.16 (Cmp 6) (Storage 5° C., 0 M, Avg): 0.07 area %
- Purity (Storage 5° C., 0 M, Avg): 99.8%

Source: US20240033234A1, “THERAPEUTIC COMPOUNDS, FORMULATIONS, AND USE THEREOF” (Tvardi Therapeutics, Inc., priority 2022, published 2024)
